Laboratory results: patent US8053553B2, “Targeting host proteinases as a therapeutic strategy against viral and bacterial pathogens” (Socpra Sciences Sante Et Humaines, priority 2007, dated 2011)
Non-standard residues stand in square brackets, D forms with d. Residues, ends and D or L forms follow the SMILES beside them. No end group written: not given here. βAla = NCCC(=O)O

Legend:
[1] = test system: B. anthracis Sterne spores; parameters: species or system A/J mice; details: mouse, in vivo
[2] = test system: Pseudomonas exotoxin A (PEx); assay: Lethal action of Pseudomonas exotoxin A in mice; format: in vivo, C57/BL6 mice
Protocol: A similar set of experiments was carried out with an unrelated toxin, Pseudomonas exotoxin A. Consistent with the earlier data (Chiron, M. F., et al. 1997), Pseudomonas exotoxin A (PEx) was resistant to PC cleavage at pH 7.5 but following unfolding at pH 5.5 PEx (66 kDa) was readily processed by furin, PC4 and PC5/6 to produce the 28 kDa N-terminal fragment and the toxic 37 kDa Cterminal fragment (FIG. 3A). C57/BL6 mice (5 mice/group) received one intramuscular injection of PEx (500 ng/animal; 2xLD50; Fogle, M. R., et al. 2002) and one injection of the […] (SEQ ID NO:212) peptide (12.5 mg/kg i.p.) either 24 h prior to toxin injection or simultaneously with toxin. Another group of mice, after receiving one injection of the peptide 24 h prior to toxin injection, continued to receive daily injections of the peptide for the remainder of the experiment.
C57/BL6 mice (5 mice/group) received one intramuscular injection of PEx (500 ng/animal; 2xLD50; Fogle, M. R., et al. 2002). Mice received one injection of the […] (SEQ ID NO:212) peptide (12.5 mg/kg i.p.) either 24 h prior to toxin injection or simultaneously with toxin. Additional group of mice after receiving one injection of the peptide 24 h prior to toxin injection continued to receive daily injections of the peptide for the remainder of the experiment (FIG. 3B).

Row | Molecule | infected mice protected from disease [1] | survival ([2]; C57/BL6 mice, PEx 500 ng/animal (2xLD50), peptide 12.5 mg/kg i.p. 24 h prior to toxin then daily injections) | protection of mice from the toxic effect of PEx ([2]; peptide 12.5 mg/kg i.p. (FIG. 3)) | protection from LF-induced cytotoxicity (RAW 264.7 cells) | protection of A/J mice from anthrax [1]
1 | C[C@H](NC(=O)[C@H](CCCNC(=N)N)NC(=O)[C@@H]1CCCN1C(=O)[C@@H](N)[C@@H](C)O)C(=O)N[C@@H](CCCNC(=N)N)C(=O)N[C@@H](CCCNC(=N)N)C(=O)N[C@@H](CCCNC(=N)N)C(=O)N[C@@H](CCCCN)C(=O)N[C@@H](CCCCN)C(=O)N[C@@H](CCCNC(=N)N)C(=O)N[C@H](C(N)=O)[C@@H](C)O (H-TPRARRRKKRT-NH2) | 40% | 60% | protects mice from the toxic effect of Pseudomonas PEx | protected cells from LF-induced cytotoxicity | 
2 | β-Ala-TPRARRRKKRT-amide ([βAla]TPRARRRKKRT-NH2; N-terminus assumed; SMILES C[C@H](NC(=O)[C@H](CCCNC(=N)N)NC(=O)[C@@H]1CCCN1C(=O)[C@@H](NC(=O)CCN)[C@@H](C)O)C(=O)N[C@@H](CCCNC(=N)N)C(=O)N[C@@H](CCCNC(=N)N)C(=O)N[C@@H](CCCNC(=N)N)C(=O)N[C@@H](CCCCN)C(=O)N[C@@H](CCCCN)C(=O)N[C@@H](CCCNC(=N)N)C(=O)N[C@H](C(N)=O)[C@@H](C)O) |  |  |  |  | protect A/J mice from anthrax
